The values that follow come from patent publication US20080214563A1, “Benzimidazole Thiophene Compounds As Plk Modulators” (priority 2005, published 2008).

For series [1], the system named is P388. The experiment in a line: Cell-Titer Glo Cell Growth Inhibition Assay, P388. The format is cell-based, murine. The following applies: Mus musculus, CellTiter-Glo, 72 h, read-out: CTG P388 IC50. The procedure: (§1) A549-L (human lung), BT474 (human breast), Colo 205 (human colon), H1299 (human lung), Hela (human cervix), HCT-116 (human colon), HN5 (human head and neck), HT29 (human colon), LNCap (human prostate), MCF7 (human breast), MDA-MB468 (human breast), MX-1 (human breast), RPMI 8226 (human peripheral blood), SKOV3 (human ovary) and P388 (murine leukemia) cell lines were cultured in RPMI1640 containing 10% fetal bovine serum at 37° C. in a 5% CO2 incubator. Cell lines were split into T75 flasks (Falcon #353136) two to three days prior to assay set up at density which yields approximately 70-80% confluency at time of harvest for assay. Cells were harvested using 0.25% trypsin with EDTA (Glibco/Invitrogen #25200-056), Cell counts were performed on cell suspensions using Trypan Blue exclusion staining, cells were then plated in 105 uL of culture media per well at the following densities in 96 well Costar #3916 black flat bottom plates: All human cell lines were plated at 500 cells/well. P388 were plated at 250 cells/well. All plates were placed at 5% CO2 37° C. overnight and then test compounds were added the following day. One plate of each cell type is treated with CellTiter-Glo (Promega #G7573) for a day 0 proliferation measurement and read as described below. The test compounds are prepared in clear U bottom polypropylene 96 well plates (Falcon #35-1190 with consecutive two fold dilutions. 9 uL of these dilutions was added into each well of the cell plates. The final concentration of DMSO in all wells is 0.15%. Cells were incubated at 37° C., 5% CO2 for 72 h. Following 72 h of incubation with compounds each plate was developed and read. CellTiter-Glo reagent was added to assay plates using a volume equivalent to the cell culture volume in the wells. Plates were shaken for approximately two minutes and incubated at room temperature for approximately 15 min and the chemiluminescent signal is read on the Victor V or Envison 2100 reader. […] Concentration of compound that inhibited 50% of cell growth (IC50) was analysis by 4 or 6 parameter fit of data using XLfit, value of no cell addition was subtracted from all samples for background.

Series [2] has as its system Colo 205. The series can be described thus: Cell-Titer Glo Cell Growth Inhibition Assay, COLO205. Format: cell-based. Conditions: Homo sapiens, CellTiter-Glo, 72 h, read-out: CTG COLO205 IC50. Here is the method:
as §1
Background: Cellular ATP, detected with luciferase, serves as a proxy for viable cell number.

The subject of series [3] is MDA-MB468. The experiment in a line: Cell-Titer Glo Cell Growth Inhibition Assay, MDA-MB468. Format: cell-based. Conditions: Homo sapiens, MDA-MB-468, CellTiter-Glo, 72 h, read-out: CTG MDA-MB468 IC50. The procedure:
(§2) A549-L (human lung), BT474 (human breast), Colo 205 (human colon), H1299 (human lung), Hela (human cervix), HCT-116 (human colon), HN5 (human head and neck), HT29 (human colon), LNCap (human prostate), MCF7 (human breast), MDA-MB468 (human breast), MX-1 (human breast), RPMI 8226 (human peripheral blood), SKOV3 (human ovary) and P388 (murine leukemia) cell lines were cultured in RPMI1640 containing 10% fetal bovine serum at 37° C. in a 5% CO2 incubator. Cell lines were split into T75 flasks (Falcon #353136) two to three days prior to assay set up at density which yields approximately 70-80% confluency at time of harvest for assay. Cells were harvested using 0.25% trypsin with EDTA (Glibco/Invitrogen #25200-056), Cell counts were performed on cell suspensions using Trypan Blue exclusion staining, cells were then plated in 105 uL of culture media per well at the following densities in 96 well Costar #3916 black flat bottom plates: All human cell lines were plated at 500 cells/well. P388 were plated at 250 cells/well. All plates were placed at 5% CO2 37° C. overnight and then test compounds were added the following day. One plate of each cell type is treated with CellTiter-Glo (Promega #G7573) for a day 0 proliferation measurement and read as described below. […]

Series [4] deals with A549-L. The experiment in a line: Cell-Titer Glo Cell Growth Inhibition Assay, A549-L. Format: cell-based. Conditions: Homo sapiens, CellTiter-Glo, 72 h, read-out: CTG A549-L IC50. Here is the method: as §1
The test system of series [5] is MX-1. The series can be described thus: Cell-Titer Glo Cell Growth Inhibition Assay, MX-1. Format: cell-based. Conditions: Homo sapiens, MX1, CellTiter-Glo, 72 h, read-out: CTG MX-1 IC50. Here is the method:
as §1

Series [6] deals with HN5. The series can be described thus: Cell-Titer Glo Cell Growth Inhibition Assay, HN5. The format is cell-based. Conditions: Homo sapiens, CellTiter-Glo, 72 h, read-out: CTG HN5 IC50. Here is the method: as §2
Series [7] relates to SKOV3. The experiment in a line: Cell-Titer Glo Cell Growth Inhibition Assay, SKOV-3. The format is cell-based. Conditions: Homo sapiens, SK-OV-3, CellTiter-Glo, 72 h, read-out: CTG SKOV-3 IC50. The procedure:
as §1

Series [8] has as its system HCT-116. The series can be described thus: Cell-Titer Glo Cell Growth Inhibition Assay, HCT116. Format: cell-based. Conditions: Homo sapiens, CellTiter-Glo, 72 h, read-out: CTG HCT116 IC50. Here is the method:
as §1

Series [9] has as its system H1299. The experiment in a line: Cell-Titer Glo Cell Growth Inhibition Assay, H1299. Format: cell-based. Conditions: Homo sapiens, NCI-H1299, CellTiter-Glo, 72 h, read-out: CTG H1299 IC50. Here is the method:
as §2

The subject of series [10] is HT29. The experiment in a line: Cell-Titer Glo Cell Growth Inhibition Assay, HT29. Format: cell-based. Conditions: Homo sapiens, HT-29, CellTiter-Glo, 72 h, read-out: CTG HT29 IC50. Here is the method: as §1
Series [11] in a line: Intravenous pharmacokinetics in CD-1 mouse. Conditions: plasma, iv bolus, male CD-1 mouse, dose 1.9-7.4 mg/kg per compound (Table 3). Format: in vivo. Here is the method:
Preliminary investigation of the intravenous pharmacokinetics of compounds of invention were carried out in fed conscious CD-1 mouse. Compounds were formulated as 1-10 mg/kg, 5 mL/kg, 1-2 mg/mL solution (Table 3). Twenty one male mice (n=3 mice per time point) (˜30 g) received dose solution by bolus injection in the tail vein. The formulation for iv were either 20% beta cyclodextrin in saline pH 3.5-6 or PEG400:ethanol:saline (50:15:35 v/v). Blood samples (˜0.4 mL) were collected terminally by cardiac puncture following anesthetization in a CO2 chamber at 2, 15, 30, 60 min, 2, 4, and 6 h following iv administration. Blood samples were collected into tubes containing heparin and placed on crushed ice promptly after collection. Plasma was collected by centrifugation, frozen and stored at about −80° C. prior to analysis. Blood or plasma concentrations were determined by LC/MS/MS equipped with an electrospray ion source and using calibration curves for the appropriate matrix. The lower level of quantitation (LLQ) was 10 ng/mL. Blood or plasma concentration-time data were analyzed by non-compartmental methods using the computer program WinNonlin Professional (version 4.1). Area under the blood or plasma concentration-time curve (AUC) was calculated using the linear trapezoidal rule for each incremental trapezoid up to Cmax, and the log trapezoidal rule for each trapezoid thereafter. The terminal elimination rate constant (λz) was derived from the log-linear disposition phase of the concentration-time curve using least-squares regression analysis with visual inspection of the data to determine the appropriate number of terminal data points for regression analysis.
Following iv administration, the total body clearance (CL) was estimated. CL was calculated by dividing the dose by AUC(0−t). The clearance values were assigned as follows. Low <30 mL/min/kg, moderate 30-70 mL/min/kg, high >70 mL/min/kg. The assignment was based on hepatic blood flow i.e. hepatic blood flow of 0-30% low, 30-70% moderate and 70-100% high. The hepatic blood flow in mouse is ˜100 mL/min/kg.

The subject of series [12] is BT474. The experiment in a line: Cell-Titer Glo Cell Growth Inhibition Assay, BT474. Format: cell-based. The following applies: Homo sapiens; CellTiter-Glo, 72 h, BT 474; read-out: CTG BT 474 IC50. Here is the method:
as §2

Series [13] deals with RPMI 8226. The series can be described thus: Cell-Titer Glo Cell Growth Inhibition Assay, RPMI 8226. The format is cell-based. Conditions: Homo sapiens, CellTiter-Glo, 72 h, read-out: CTG RPMI 8226 IC50. Here is the method: as §2
In series [14] the test system is LNCap. The experiment in a line: Cell-Titer Glo Cell Growth Inhibition Assay, LNCap. The format is cell-based. The following applies: Homo sapiens, CellTiter-Glo, 72 h, read-out: CTG LNCap IC50. Here is the method: as §2
Series [15] has as its system Hela. The series can be described thus: Cell-Titer Glo Cell Growth Inhibition Assay, Hela. Format: cell-based. The following applies: Homo sapiens, CellTiter-Glo, 72 h, read-out: CTG Hela IC50. Here is the method: as §2
Series [16] has as its system MCF7. The experiment in a line: Cell-Titer Glo Cell Growth Inhibition Assay, MCF7. The following applies: Homo sapiens, CellTiter-Glo, 72 h, read-out: CTG MCF7 IC50. The format is cell-based. Here is the method: as §2

Structures are written as SMILES. A value given as a limit tells only on which side of the number the result lay.

Consider `CCN1CCN(CCCn2cc(-c3ccc4c(c3)ncn4-c3cc(O[C@H](C)c4ccccc4Cl)c(C(N)=O)s3)cn2)CC1` [Example 8, 3-{[(1R)-1-(2-Chlorophenyl)ethyl]oxy}-5-(5-{1-[3-(4-ethyl-1-piperazinyl)propyl]-1H-pyrazol-4-yl}-1H-benzimidazol-1-yl)-2-thiophenecarboxamide], for which the IC50 in [1], in series [2], in series [3], in series [4], in series [5] and in series [6] was under 100 nM throughout. The half-inhibitory concentration (IC50) in series [7], in [8], in [9], in [10], in series [12] and in series [13] was under 100 nM each time. Besides, the concentration for half-maximal inhibition (IC50) in [14], in series [15] and in [16] was under 100 nM throughout. Also, the AUC(0-t) (in general, exposure summed from dosing to a finite time, without extrapolation to infinity) in series [11] was found to be 1410 ng·h/mL. Besides, the clearance in series [11] (read-out: Plasma CL) was determined as 43.6 mL/min/kg.
